Data from the supplement of paper PMC10307832.

Key:
Assay in all cases: relative viability (nuclei count vs DMSO), 5 days (fraction); higher = more cells survive
[1] = compound: CC(C)(C)c1nc(-c2cccc(NS(=O)(=O)c3c(F)cccc3F)c2F)c(-c2ccnc(N)n2)s1 [Dabrafenib] + CC(=O)c1c(C)c2cnc(Nc3ccc(N4CCNCC4)cn3)nc2n(C2CCCC2)c1=O [Palbociclib] (partner 0.5 µM)
Summary of the method: (§1)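 Relative viability is defined as nuclei in treated wells over nuclei in vehicle wells. Duplicate plates were run and medians reported. Lung cancer cell lines in 1536-well plates were dosed by pin tool one day after seeding, with one drug or with a fixed anchor-drug dose plus five library-drug doses (not always all listed) in √10 steps, and nuclei were counted after 5 days.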

[2] = compound: CC(C)(C)c1nc(-c2cccc(NS(=O)(=O)c3c(F)cccc3F)c2F)c(-c2ccnc(N)n2)s1 [Dabrafenib] + CCNC(=O)c1noc(-c2cc(C(C)C)c(O)cc2O)c1-c1ccc(CN2CCOCC2)cc1 [Luminespib] (partner 0.01 µM)
Summary of the method: as §1

[3] = compound: CC(C)(C)c1nc(-c2cccc(NS(=O)(=O)c3c(F)cccc3F)c2F)c(-c2ccnc(N)n2)s1 [Dabrafenib] + NC(=O)Nc1cc(-c2cccc(F)c2)sc1C(=O)N[C@H]1CCCNC1 [AZD7762] (partner 0.2 µM)
Summary of the method: as §1

[4] = compound: NC(=O)c1ccc(N(C(N)=O)c2c(F)cccc2F)nc1-c1ccc(F)cc1F [VX-702] + CC(=O)c1c(C)c2cnc(Nc3ccc(N4CCNCC4)cn3)nc2n(C2CCCC2)c1=O [Palbociclib] (partner 0.5 µM)
Summary of the method: as §1

Cell Line	relative viability ([1]; first compound 0.003 µM)	relative viability ([1]; first compound 0.009487 µM)	relative viability ([1]; first compound 0.03 µM)	relative viability ([1]; first compound 0.09487 µM)	relative viability ([1]; first compound 0.3 µM)	relative viability ([2]; first compound 0.009487 µM)	relative viability ([2]; first compound 0.03 µM)	relative viability ([2]; first compound 0.09487 µM)	relative viability ([2]; first compound 0.3 µM)	relative viability ([3]; first compound 0.003 µM)	relative viability ([3]; first compound 0.009487 µM)	relative viability ([3]; first compound 0.03 µM)	relative viability ([3]; first compound 0.09487 µM)	relative viability ([3]; first compound 0.3 µM)	relative viability ([4]; first compound 0.02 µM)	relative viability ([4]; first compound 0.2 µM)	relative viability ([4]; first compound 0.6325 µM)	relative viability ([4]; first compound 2 µM)	relative viability ([2]; first compound 0.003 µM)
LC-2-ad	0.52	0.511	0.495	0.476	0.478	1.16	1.27	1.04	0.947	0.654	0.945	0.87	0.92	1.07	0.496	0.451	0.525	0.478	
LCLC-97TM1		0.206	0.266	0.184	0.198	0.745	0.584	0.756	0.775		0.239	0.25	0.129	0.224	0.192	0.23	0.195	0.3	0.764
LCLC-103H	0.467	0.495	0.432	0.455	0.514	1.01	0.923	0.897	1.01	0.703	0.834	0.701	0.794	0.761	0.459	0.498	0.439	0.434	0.971
LK-2	0.687	0.377		0.555	0.84	0.187		0.153	0.157	0.125	0.449		0.433	0.467	0.533	0.618	0.567	0.614	0.185
LOU-NH91		0.558	0.589	0.533	0.543	0.36	0.28	0.343	0.294		0.768	0.734	0.725	0.827	0.554	0.532	0.544	0.536	0.262
LU99A	0.477	0.387	0.388	0.39	0.393	0.212	0.225	0.3	0.29	0.55	0.401	0.368	0.352	0.261	0.407	0.387	0.389	0.34	0.203
LXF-289	0.59	0.594	0.673	0.62	0.616	0.73	0.675	0.589	0.752	0.162	1.13	1.22	1.06	1.29	0.616	0.563	0.59	0.616	0.651
NCI-H23		0.575	0.465	0.455	0.634		0.225	0.195	0.226		0.207	0.205	0.254	0.217	0.492	0.443	0.544	0.559	
NCI-H520	0.216	0.228	0.196	0.241	0.217	0.213	0.21	0.262	0.224						0.229	0.275	0.191	0.231	0.228
